Measured values taken from patent publication US20030055065A1, “Tricyclic amide and urea compounds useful for inhibition of G-protein function and for treatment of proliferative diseases” (priority 1993, published 2003).
“And” between values parts separate entries of the source, which are not always exact repeats. Equal entries are not always repeated. Where two headings read alike, the source gives them in different places.

Target: T1, farnesyl protein transferase (FPT), partially purified from rat brain (Rattus norvegicus, UniProt Q02293+Q04631)
T1 construct: were partially purified from rat brain by ammonium sulfate fractionation followed by Q-Sepharose
Experiment: Inhibition of farnesyl protein transferase (transfer of [3H]farnesyl to Ras-CVLS)
Type: biochemical
Settings: for IC50: read-out: FPT IC50
Experimental: 1. In vitro enzyme assays: Inhibition of farnesyl protein transferase and geranylgeranyl protein transferase.
Human farnesyl protein transferase was also expressed in E. coli, using cDNA clones encoding both the α and β subunits. […] Human farnesyl protein transferase was partially-purified from the soluble protein fraction of E. coli as described above. […] Two forms of val^12-Ha-Ras protein were prepared as substrates for these enzymes, differing in their carboxy terminal sequence. One form terminated in cysteine-valine-leucine-serine (Ras-CVLS) the other in cystein-valine-leucine-leucine (Ras-CVLL). Ras-CVLS is a substrate for the farnesyl protein transferase while Ras-CVLL is a substrate for geranylgeranyl protein transferase I. The cDNAs encoding these proteins were constructed so that the proteins contain an amino-terminal extension of 6 histidine residues. Both proteins were expressed in Escherichia coli and purified using metal chelate affinity chromatography. The radiolabelled isoprenyl pyrophosphate substrates, [^3H]farnesyl pyrophosphate and [3H]geranylgeranyl pyrophosphate, were purchased from DuPont/New England Nuclear.
The reaction was allowed to proceed for 30 minutes at room temperature and then stopped with 0.5 ml of 4% sodium dodecyl sulfate (SDS) followed by 0.5 ml of cold 30% trichloracetic acid (TCA). Samples were allowed to sit on ice for 45 minutes and precipitated Ras protein was then collected on GF/C filter paper mats using a Brandel cell harvester. […] Percent inhibition was calculated relative to the DMSO vehicle control.

[1] = Ras-CVLS farnesylation, partially purified rat brain FPT

T1 sequence (Q02293 whole entry, one chain of several): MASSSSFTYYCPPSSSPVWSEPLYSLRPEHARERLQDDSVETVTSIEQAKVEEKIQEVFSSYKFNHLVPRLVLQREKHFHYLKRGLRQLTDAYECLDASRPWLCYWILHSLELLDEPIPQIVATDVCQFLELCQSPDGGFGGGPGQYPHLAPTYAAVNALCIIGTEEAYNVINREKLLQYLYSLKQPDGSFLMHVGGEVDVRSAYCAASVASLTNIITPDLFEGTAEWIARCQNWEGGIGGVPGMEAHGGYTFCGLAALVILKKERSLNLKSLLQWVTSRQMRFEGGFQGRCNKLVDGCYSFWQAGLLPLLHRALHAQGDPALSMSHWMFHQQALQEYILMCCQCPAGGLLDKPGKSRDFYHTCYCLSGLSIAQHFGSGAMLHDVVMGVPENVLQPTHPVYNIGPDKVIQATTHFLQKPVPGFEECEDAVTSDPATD

Structure (SMILES) | IC50 [1] | also measured
O=C(c1ccoc1)N1CCC(=C2c3ccc(Cl)cc3CCc3cccnc32)CC1 [Example 55] | 5.9 µM | 
O=C(Cc1ccncc1)N1CCC(=C2c3ccc(Cl)cc3CCc3c2ncc(Br)c3Cl)CC1 [Example 356] | 0.062 µM and 0.073 µM | 
CN1CCCC(NC(=O)N2CCN(C3c4ccc(Cl)cc4CCc4cccnc43)CC2)C1 (stereo not drawn) [Example 432] |  | IC50 (enzyme inhibition): 0.66 µM
CN1CCN(CC(=O)N2CCC(=C3c4ccc(Cl)cc4CCc4cccnc43)CC2)CC1 [Example 410-H] | 7 µM | 
O=C([C@H](Cc1ccccc1)N1C(=O)c2ccccc2C1=O)N1CCN(C2c3ccc(Cl)cc3CCc3cccnc32)CC1 (stereo partly drawn) [Example 216] |  | FPT inhibition (at 10 μM): 34% @
O=C(Cc1cccnc1)N1CCC(=C2c3ccc(Cl)cc3CCc3c2ncc(Br)c3O)CC1 [Example 253] | 4.3 µM | 
CN(C)c1ccc(C(=O)N2CCC(=C3c4ccc(Cl)cc4CCc4cccnc43)CC2)cc1 [Example 17] | 4.8 µM | 
CC(C)(C)OC(=O)N1CCC(C(=O)N2CCN(C3c4ccc(Cl)cc4CCc4cccnc43)CC2)CC1 (stereo not drawn) [Example 202] |  | FPT inhibition (at 11 μM): 20% @
N[C@@H](CO)C(=O)N1CCC(CC(=O)N2CCN(C3c4ccc(Cl)cc4CCc4cccnc43)CC2)CC1 (stereo partly drawn) [Example 433-A] | 1.1 µM | 
O=C(/C=C/c1ccncc1)N1CCC(=C2c3ccc(Cl)cc3CCc3cccnc32)CC1 [Example 99] | 4.4 µM | 
COC(=O)CSc1ccnc2c1CCc1cc(Cl)ccc1C2=C1CCN(C(=O)Cc2cccnc2)CC1 [Example 257] | 2.3 µM | 
CSCC[C@H](N)C(=O)N1CCC(CC(=O)N2CCN(C3c4ccc(Cl)cc4CCc4cccnc43)CC2)CC1 (stereo partly drawn) [Example 433-B] | 1.89 µM | 
CCCCNc1c(Br)cnc2c1CCc1cc(Cl)ccc1C2=C1CCN(C(=O)Cc2ccncc2)CC1 [Example 400-M] |  | IC50 (enzyme inhibition): 0.9 µM
O=C(c1cc2ccccc2[nH]1)N1CCC(=C2c3ccc(Cl)cc3CCc3cccnc32)CC1 [Example 40] |  | FPT inhibition (at 13 μM): 44% at 13 μM
CC(C)(C(=O)N1CCC(=C2c3ccc(Cl)cc3CCc3cc(Br)cnc32)CC1)c1ccncc1 [Example 361] | 0.32 µM | 
O=C(Cc1cccnc1)N1CCC(=C2c3ccc(Cl)cc3CCc3c(O)ccnc32)CC1 [Example 252] | 7.2 µM | 
CCN(CC)c1cnc2c(c1)CCc1cc(Cl)ccc1C2=C1CCN(C(=O)Cc2ccncc2)CC1 [Example 424-A] | 1000 µM | FPT IC50 (μM) column, second line printed as 'x (y)' (Table 22, no key shown, presumably % inhibition (concentration in μM)): 22 (4)
O=C(c1ccco1)N1CCC(=C2c3ccc(Cl)cc3CCc3cccnc32)CC1 [Example 52] | 4.9 µM | 
O=C(NCC(=O)N1CCN(C2c3ccc(Cl)cc3CCc3cccnc32)CC1)OCc1ccccc1 (stereo not drawn) [Example 207] |  | FPT inhibition (at 12 μM): 40% @
O=C(Nc1ccc[n+]([O-])c1)N1CCN(C2c3ccc(Cl)cc3CCc3cc(Br)cnc32)CC1 (stereo not drawn) [Example 427-C] |  | IC50 (enzyme inhibition): 0.24 µM
CC(=O)N1CCC(=C2c3ccc(Cl)cc3CCc3cc(Cl)cnc32)CC1 [Example 62] | 7.8 µM | 
O=C(c1ccnc2ccccc12)N1CCC(=C2c3ccc(Cl)cc3CCc3cccnc32)CC1 [Example 38] | 12.1 µM | 
CCNC(=O)N1CCC(CC(=O)N2CCN(C3c4ccc(Cl)cc4CCc4cccnc43)CC2)CC1 (stereo not drawn) [Example 431-B] |  | IC50 (enzyme inhibition): 0.92 µM

Structure (SMILES) | IC50 [1] | also measured
O=C(Cc1ccnc(N2CCCCC2)c1)N1CCC(=C2c3ccc(Cl)cc3CCc3cc(Br)cnc32)CC1 [Example 411-FF] |  | IC50 (enzyme inhibition): 1.8 µM
CC(=O)N1CCC(=C2c3ccccc3CCc3cccnc32)CC1 [Example 147] |  | FPT inhibition (at 18.8 μM): 0% at 18.8 μM
O=C(CC1CCCNC1)N1CCN(C2c3ccc(Cl)cc3CCc3cccnc32)CC1 (stereo not drawn) [Example 428-A] |  | IC50 (enzyme inhibition): 1.1 µM
CC(C)(C(=O)N1CCC(=C2c3ccc(Cl)cc3CCc3cc(Br)cnc32)CC1)c1ccc[n+]([O-])c1 [Example 360] | 0.59 µM | 
CC(=O)N1CCN(C2c3ccccc3CCc3ccccc32)CC1 [Example 153] | 29.6 µM | 
CN1CCC(CC(=O)N2CCC(=C3c4ccc(Cl)cc4CCc4cc(Cl)cnc43)CC2)CC1 [Example 411-X] |  | IC50 (enzyme inhibition): 0.45 µM
CC(=O)N1CCC(=C2c3ccc(Cl)cc3CCc3cc(C(C)(C)C)cnc32)CC1 [Example 66] |  | FPT inhibition (at 50 μM): 22% at 50 μM
O=C(Cc1cc[n+]([O-])cc1)N1CCC(=C2c3ccc(Cl)cc3CCc3cc(Cl)ccc32)CC1 [Example 422] |  | IC50 (enzyme inhibition): 0.6 µM
CC(=O)N1CCC(=C2c3ccncc3CCc3cc(Cl)ccc32)CC1 [Example 143] | 35.4 µM | 
O=C(Cc1cc[n+]([O-])cc1)N1CCC(=C2c3ccc(Cl)cc3CCc3ccc[n+]([O-])c32)CC1 [Example 232] | 6 µM | 
CC(=O)N1CCC(=C2c3ccc(Cl)cc3CCc3cccnc32)CC1 [Example 59] | 26.9 µM | 
CC(=O)ON=C1Cc2cccnc2C(=C2CCN(C(=O)Cc3ccncc3)CC2)c2ccc(Cl)cc21 [Example 420] |  | IC50 (enzyme inhibition): 0.23 µM
Nc1ccc(C(=O)N2CCC(=C3c4ccc(Cl)cc4CCc4cccnc43)CC2)cc1 [Example 21] | 5.9 µM | 
CCNc1cnc2c(c1)CCc1cc(Cl)ccc1C2=C1CCN(C(=O)Cc2ccncc2)CC1 [Example 424] | 1.3 µM | 
CC(=O)N1CCC(=C2c3ccc(Cl)cc3CCc3ccc[n+](C)c32)CC1 [Example 130] |  | FPT inhibition (at 12.1 μM): 7% at 12.1 μM
C=CC(=O)N1CCC(=C2c3ccc(Cl)cc3CCc3cccnc32)CC1 [Example 115] | 14.2 µM | 
N#Cc1cnc2c(c1)CCc1cc(Cl)ccc1C2=C1CCN(C(=O)Cc2ccncc2)CC1 [Example 406] |  | IC50 (enzyme inhibition): 1.4 µM
CC(=O)N1CCCC(CC(=O)N2CCN(C3c4ccc(Cl)cc4CCc4cccnc43)CC2)C1 (stereo not drawn) [Example 205] | 3.1 µM | 
CN1CCCC(C(=O)N2CCN(C3c4ccc(Cl)cc4CCc4cccnc43)CC2)C1 (stereo not drawn) [Example 195] | 6.8 µM | 
CC(=O)Nc1cnc2c(c1)CCc1cc(Cl)ccc1C2=C1CCN(C(=O)Cc2ccncc2)CC1 [Example 403] | 1000 µM | 
CC(=O)N1CCC(C2c3ccc(Cl)cc3CCc3cccnc32)CC1 (stereo not drawn) [Example 150] |  | FPT inhibition (at 16.9 μM): 38% at 16.9 μM
O=C(Cc1ccncc1)N1CCC(=C2c3ccc(Cl)cc3CCc3ccc[n+]([O-])c32)CC1 [Example 230] | 2.06 µM | 
O=C(C1CCCO1)N1CCC(=C2c3ccc(Cl)cc3CCc3cccnc32)CC1 (stereo not drawn) [Example 19A] | 5.1 µM | 

Structure (SMILES) | IC50 [1] | also measured
O=C(Cc1cccnc1)N1CCC(=C2c3ccc(Cl)cc3CCc3cc(O)cnc32)CC1 [Example 240] | 3.12 µM | 
CC(=O)N1CCC(=C2c3ccc(Cl)cc3CC(C)c3cccnc32)CC1 (stereo not drawn) [Example 137] |  | FPT inhibition (at 16.3 μM): 15% at 16.3 μM
C[S+]([O-])c1ccnc2c1CCc1cc(Cl)ccc1C2=C1CCN(C(=O)Cc2cccnc2)CC1 (stereo not drawn) [Example 256] | 4.9 µM | 
O=C(c1ccc(=O)[nH]c1)N1CCC(=C2c3ccccc3CCc3ccccc32)CC1 [Example 152] | 15 µM | 
C[C@H](N)C(=O)N1CCC(CC(=O)N2CCN(C3c4ccc(Cl)cc4CCc4cccnc43)CC2)CC1 (stereo partly drawn) [Example 433] | 2.5 µM | 
O=C(Cc1ccnc(OCc2ccccc2)c1)N1CCC(=C2c3ccc(Cl)cc3CCc3cc(Br)cnc32)CC1 [Example 411-DD] |  | IC50 (enzyme inhibition): 3.1 µM
CN1CCC(CC(=O)N2CCC(=C3c4ccc(Cl)cc4CCc4c3n(C)cc(Br)c4=O)CC2)CC1 [Example 410-M] | ~12 µM | 
CC(=O)N1CCC(=C2c3ccc(Cl)cc3CCc3c(C)cc[n+]([O-])c32)CC1 [Example 132] |  | FPT inhibition (at 15 μM): 22% at 15 μM
O=C1Cc2cc(Cl)ccc2C(=C2CCN(C(=O)Cc3cccnc3)CC2)c2ncccc21 [Example 279] | 7.7 µM | 
COC(=O)N1CCCC(CC(=O)N2CCN(C3c4ccc(Cl)cc4CCc4cccnc43)CC2)C1 (stereo not drawn) [Example 430-A] |  | IC50 (enzyme inhibition): 7 µM
O=C(c1cc[n+]([O-])cc1)N1CCC(=C2c3ccccc3CCc3cc(Cl)ccc32)CC1 [Example 146] |  | FPT inhibition (at 12 μM): 45% at 12 μM
Cc1ccc(S(=O)(=O)NC(=O)N2CCC(=C3c4ccc(Cl)cc4CCc4cccnc43)CC2)cc1 [Example 120] |  | FPT inhibition (at 39 μM): 4% at 39 μM
O=C(Nc1cccnc1)N1CCC(=C2c3ccc(Cl)cc3CCc3c(O)ccnc32)CC1 [Example 263] | 9.8 µM | 
O=C(Nc1cccnc1)N1CCC(=C2c3ccc(Cl)cc3C=Cc3cccnc32)CC1 [Example 277] | 2.3 µM | 
CC(C)(C)OC(=O)NCC(=O)N1CCC(=C2c3ccc(Cl)cc3CCc3cccnc32)CC1 [Example 112] | 8.8 µM | 
CC(=O)N(C)CCC(=O)N1CCC(=C2c3ccc(Cl)cc3CCc3cccnc32)CC1 [Example 113] | 10.3 µM | 
CN1CCN(CC(=O)N2CCC(=C3c4ccc(Cl)cc4CCc4cc(Br)cnc43)CC2)CC1 [Example 410-J] | 1.9 µM | 
CCOC(=O)C(=O)N1CCC(=C2c3ccc(Cl)cc3CCc3cccnc32)CC1 [Example 56] | 7.9 µM | 
O=C(c1cnc(O)nc1O)N1CCC(=C2c3ccc(Cl)cc3CCc3cccnc32)CC1 [Example 33] | 8.7 µM | 
O=C(Cc1ccc(O)cc1)NCC(=O)N1CCN(C2c3ccc(Cl)cc3CCc3cccnc32)CC1 (stereo not drawn) [Example 210] | 7.93 µM | 
O=C(c1cnccn1)N1CCC(=C2c3ccc(Cl)cc3CCc3cccnc32)CC1 [Example 27] | 7.3 µM | 
CC(C)(C)OC(=O)N1CCC(CC(=O)N2CCN(C3c4ccc(Cl)cc4CCc4cccnc43)CC2)CC1 (stereo not drawn) [Example 193] | 7.4 µM | 
